What follows are compounds tested against T1, HDAC6 enzyme (Homo sapiens, UniProt Q9UBN7) (assay: HDAC6 enzyme inhibitory activity (HDAC-Glo I/II Assay kit)). Details: 10 μM; wells without enzyme = 100% inhibition.
T1 construct: transducing full length HDAC6 gene into Sf-9 insect cells; GST; purchased SignalChem; host or cells: Sf-9 insect cells
T1 sequence (Q9UBN7 1-1215): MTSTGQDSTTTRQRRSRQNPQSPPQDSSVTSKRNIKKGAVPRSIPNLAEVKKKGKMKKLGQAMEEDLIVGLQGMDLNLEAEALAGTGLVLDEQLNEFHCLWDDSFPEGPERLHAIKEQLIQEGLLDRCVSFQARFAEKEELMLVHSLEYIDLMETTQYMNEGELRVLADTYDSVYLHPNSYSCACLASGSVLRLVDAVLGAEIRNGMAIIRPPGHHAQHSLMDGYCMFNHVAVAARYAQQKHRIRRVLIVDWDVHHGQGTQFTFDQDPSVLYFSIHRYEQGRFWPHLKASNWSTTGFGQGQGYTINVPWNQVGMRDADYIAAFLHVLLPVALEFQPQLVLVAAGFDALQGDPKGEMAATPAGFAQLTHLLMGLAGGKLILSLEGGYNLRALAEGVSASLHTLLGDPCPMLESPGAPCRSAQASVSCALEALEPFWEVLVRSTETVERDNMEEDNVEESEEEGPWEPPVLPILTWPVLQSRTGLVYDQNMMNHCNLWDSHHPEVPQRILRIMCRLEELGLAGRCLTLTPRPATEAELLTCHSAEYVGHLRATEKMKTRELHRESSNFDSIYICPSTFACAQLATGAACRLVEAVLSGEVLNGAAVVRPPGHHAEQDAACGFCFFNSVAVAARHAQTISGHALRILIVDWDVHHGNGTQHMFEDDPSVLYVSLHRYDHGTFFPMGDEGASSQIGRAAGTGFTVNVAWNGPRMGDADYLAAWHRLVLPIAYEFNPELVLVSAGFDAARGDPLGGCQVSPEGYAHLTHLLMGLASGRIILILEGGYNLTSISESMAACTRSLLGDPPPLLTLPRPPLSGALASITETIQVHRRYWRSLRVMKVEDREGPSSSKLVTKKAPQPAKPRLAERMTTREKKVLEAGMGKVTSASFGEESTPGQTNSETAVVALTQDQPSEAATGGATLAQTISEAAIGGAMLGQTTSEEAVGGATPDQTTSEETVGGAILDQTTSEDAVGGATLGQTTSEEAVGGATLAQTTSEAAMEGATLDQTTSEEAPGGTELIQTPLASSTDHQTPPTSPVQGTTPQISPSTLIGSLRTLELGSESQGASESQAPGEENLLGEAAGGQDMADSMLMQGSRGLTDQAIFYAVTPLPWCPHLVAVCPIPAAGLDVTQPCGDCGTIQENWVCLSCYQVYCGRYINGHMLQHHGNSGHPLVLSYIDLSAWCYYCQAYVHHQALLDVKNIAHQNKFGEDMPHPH
Format: biochemical
How it was run: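 Full-length human HDAC6 (GST-purified, Sf-9 expressed) preincubated with compound 60 min at room temperature in Tris-HCl pH 7.5 buffer with MgCl2, KCl, NaCl, glutathione, Tween-20. HDAC-Glo I/II substrate-developer then added, 20 min room temperature, luminescence read. Inhibition relative to no-enzyme wells as 100%.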

`O=C1c2cc(-c3nnc(C(F)F)o3)ccc2CN1N1CCC(F)(F)CC1c1cccc(F)c1` (stereo not drawn) [Example 565, 2-(4,4-difluoro-2-(3-fluorophenyl)piperidin-1-yl)-6-(5-(difluoromethyl)-1,3,4-oxadiazol-2-yl)isoindolin-1-one (optical isomer)] and `O=C1c2cc(-c3nnc(C(F)F)o3)ccc2CN1N1CCC(F)(F)CC1c1ccc(F)cc1` (stereo not drawn) [Example 572, 2-(4,4-difluoro-2-(4-fluorophenyl)piperidin-1-yl)-6-(5-(difluoromethyl)-1,3,4-oxadiazol-2-yl)isoindolin-1-one (optical isomer)] are the same in “HDAC6 inhibitory rate (%) (10 μM)” value: 100% for the first, 100% for the second.

Compared with `O=C1c2cc(-c3nnc(C(F)F)o3)ccc2CN1N1CCC(F)(F)CC1c1ccc(F)cc1` (stereo not drawn) [Example 573, 2-(4,4-difluoro-2-(4-fluorophenyl)piperidin-1-yl)-6-(5-(difluoromethyl)-1,3,4-oxadiazol-2-yl)isoindolin-1-one (optical isomer)], `O=C(NCC(F)(F)F)C1CC(F)(F)CCN1N1Cc2ccc(-c3nnc(C(F)F)o3)cc2C1=O` (stereo not drawn) [Example 579, 1-(6-(5-(difluoromethyl)-1,3,4-oxadiazol-2-yl)-1-oxo-1,3-dihydro-2H-isoindol-2-yl)-4,4-difluoro-N-(2,2,2-trifluoroethyl)piperidine-2-carboxamide (Optical Isomer)] is higher in “HDAC6 inhibitory rate (%) (10 μM)” value: 99% for the first, 100% for the second.

`O=C(NCC(F)(F)F)C1CC(F)(F)CCN1N1Cc2ccc(-c3nnc(C(F)F)o3)cc2C1=O` (stereo not drawn) [Example 580, 1-(6-(5-(difluoromethyl)-1,3,4-oxadiazol-2-yl)-1-oxo-1,3-dihydro-2H-isoindol-2-yl)-4,4-difluoro-N-(2,2,2-trifluoroethyl)piperidine-2-carboxamide (Optical Isomer)] and `O=C1c2cc(-c3nnc(C(F)F)o3)ccc2CN1N1CCCC1c1ccccn1` (stereo not drawn) [Example 596, 6-(5-(difluoromethyl)-1,3,4-oxadiazol-2-yl)-2-(2-(pyridin-2-yl)pyrrolidin-1-yl)isoindolin-1-one (optical isomer)] are the same in “HDAC6 inhibitory rate (%) (10 μM)” value: 100% for the first, 100% for the second.

For `O=C1c2cc(-c3nnc(C(F)F)o3)ccc2CN1N1CCCC1c1ccccn1` (stereo not drawn) [Example 597, 6-(5-(difluoromethyl)-1,3,4-oxadiazol-2-yl)-2-(2-(pyridin-2-yl)pyrrolidin-1-yl)isoindolin-1-one (optical isomer)], the “HDAC6 inhibitory rate (%) (10 μM)” value was 99%.

Same assay, conditions: 10 μM; wells without enzyme = 100% inhibition; read-out: HDAC6 inhibitory rate (%) (10 μM)

`O=C(NCC(F)(F)F)C1CC(F)(F)CCN1N1Cc2ccc(-c3nnc(C(F)F)o3)cc2C1=O` (centres unmarked) [Example 564, 1-(6-(5-(difluoromethyl)-1,3,4-oxadiazol-2-yl)-1-oxo-1,3-dihydro-2H-isoindol-2-yl)-4,4-difluoro-N-(2,2,2-trifluoroethyl)piperidine-2-carboxamide] and `O=C1c2cc(-c3nnc(C(F)F)o3)ccc2CN1N1CCC(F)(F)CC1c1ccc(F)cc1` (centres unmarked) [Example 566, 2-(4,4-difluoro-2-(4-fluorophenyl)piperidin-1-yl)-6-(5-(difluoromethyl)-1,3,4-oxadiazol-2-yl)isoindolin-1-one] are the same in inhibition at 10 µM: 100% for the first, 100% for the second.

Compared with `Cn1cc(C(=O)NCC(F)(F)F)c(N2Cc3ccc(-c4nnc(C(F)F)o4)cc3C2=O)n1` [Example 567, 3-(6-(5-(difluoromethyl)-1,3,4-oxadiazol-2-yl)-1-oxo-1,3-dihydro-2H-isoindol-2-yl)-1-methyl-N-(2,2,2-trifluoroethyl)-1H-pyrazole-4-carboxamide], `Cn1cc(C(=O)NCC2CC2)c(N2Cc3ccc(-c4nnc(C(F)F)o4)cc3C2=O)n1` [Example 568, N-(cyclopropylmethyl)-3-(6-(5-(difluoromethyl)-1,3,4-oxadiazol-2-yl)-1-oxo-1,3-dihydro-2H-isoindol-2-yl)-1-methyl-1H-pyrazole-4-carboxamide] is higher in inhibition at 10 µM: 95% for the first, 96% for the second.

`Cn1cc(C(=O)N2CCC(F)(F)CC2)c(N2Cc3ccc(-c4nnc(C(F)F)o4)cc3C2=O)n1` [Example 569, 6-(5-(difluoromethyl)-1,3,4-oxadiazol-2-yl)-2-(4-((4,4-difluoropiperidin-1-yl)carbonyl)-1-methyl-1H-pyrazol-3-yl)isoindolin-1-one] and `Cn1cc(C(=O)c2ccccc2)c(N2Cc3ccc(-c4nnc(C(F)F)o4)cc3C2=O)n1` [Example 592, 2-(4-benzoyl-1-methyl-1H-pyrazol-3-yl)-6-(5-(difluoromethyl)-1,3,4-oxadiazol-2-yl)isoindolin-1-one] are the same in inhibition at 10 µM: 99% for the first, 99% for the second.

First: O=C1c2cc(-c3nnc(C(F)F)o3)ccc2CN1N1CCCC1c1ccccn1 (centres unmarked) [Example 570, 6-(5-(difluoromethyl)-1,3,4-oxadiazol-2-yl)-2-(2-(pyridin-2-yl)pyrrolidin-1-yl)isoindolin-1-one]
Second: O=C1c2cc(-c3nnc(C(F)F)o3)ccc2CN1N1CCCCC1c1ccc(F)cc1 (centres unmarked) [Example 594, 6-(5-(difluoromethyl)-1,3,4-oxadiazol-2-yl)-2-(2-(4-fluorophenyl)piperidin-1-yl)isoindolin-1-one]
The inhibition at 10 µM of the first is lower: 100% for the first, 101% for the second.

Compared with `O=C1c2cc(-c3nnc(C(F)F)o3)ccc2CN1c1cccn2cc(C(F)(F)F)nc12` [Example 571, 6-(5-(difluoromethyl)-1,3,4-oxadiazol-2-yl)-2-(2-(trifluoromethyl)imidazo[1,2-a]pyridin-8-yl)isoindolin-1-one], `O=C1c2cc(-c3nnc(C(F)F)o3)ccc2CN1N1CCC(F)(F)CC1c1ccc(F)cn1` (centres unmarked) [Example 595, 2-(4,4-difluoro-2-(5-fluoropyridin-2-yl)piperidin-1-yl)-6-(5-(difluoromethyl)-1,3,4-oxadiazol-2-yl)isoindolin-1-one] is higher in inhibition at 10 µM: 73% for the first, 100% for the second.

`O=C1c2cc(-c3nnc(C(F)F)o3)ccc2CN1[C@@H]1CCCC(F)(F)[C@H]1NC(=O)C(F)(F)C(F)F` [Example 581, N-((1S,6R)-6-(6-(5-(difluoromethyl)-1,3,4-oxadiazol-2-yl)-1-oxo-1,3-dihydro-2H-isoindol-2-yl)-2,2-difluorocyclohexyl)-2,2,3,3-tetrafluoropropanamide] and `CC(C)(OC(=O)N[C@H]1[C@H](N2Cc3ccc(-c4nnc(C(F)F)o4)cc3C2=O)CCCC1(F)F)C(F)F` [Example 583, 1,1-difluoro-2-methylpropan-2-yl ((1S,6R)-6-(6-(5-(difluoromethyl)-1,3,4-oxadiazol-2-yl)-1-oxo-1,3-dihydro-2H-isoindol-2-yl)-2,2-difluorocyclohexyl)carbamate] are the same in inhibition at 10 µM: 99% for the first, 99% for the second.

Going from `CC(C)(CF)OC(=O)N[C@H]1[C@H](N2Cc3ccc(-c4nnc(C(F)F)o4)cc3C2=O)CCCC1(F)F` [Example 582, 1-fluoro-2-methylpropan-2-yl ((1S,6R)-6-(6-(5-(difluoromethyl)-1,3,4-oxadiazol-2-yl)-1-oxo-1,3-dihydro-2H-isoindol-2-yl)-2,2-difluorocyclohexyl)carbamate] to `O=C1c2cc(-c3nnc(C(F)F)o3)cnc2CN1[C@@H]1CCCC(F)(F)[C@H]1NC(=O)C(F)(F)C(F)(F)F` [Example 599, N-((1S,6R)-6-(3-(5-(difluoromethyl)-1,3,4-oxadiazol-2-yl)-5-oxo-5,7-dihydro-6H-pyrrolo[3,4-b]pyridin-6-yl)-2,2-difluorocyclohexyl)-2,2,3,3,3-pentafluoropropanamide], the inhibition at 10 µM falls from 100% to 99%.

`O=C1c2cc(-c3nnc(C(F)F)o3)cnc2CN1[C@@H]1CCCC[C@H]1Oc1ccccn1` [Example 593, 3-(5-(difluoromethyl)-1,3,4-oxadiazol-2-yl)-6-((1R,2R)-2-(pyridin-2-yloxy)cyclohexyl)-6,7-dihydro-5H-pyrrolo[3,4-b]pyridin-5-one] and `Cc1ccc(C2CC(F)(F)CCN2N2Cc3ccc(-c4nnc(C(F)F)o4)cc3C2=O)nc1` (centres unmarked) [Example 600, 6-(5-(difluoromethyl)-1,3,4-oxadiazol-2-yl)-2-(4,4-difluoro-2-(5-methylpyridin-2-yl)piperidin-1-yl)isoindolin-1-one] are the same in inhibition at 10 µM: 100% for the first, 100% for the second.
